Laboratory results published in the supplement of paper PMC12613149.

How the values were obtained:
[1] = reversed-phase LC retention time (C18, 15 min MeOH gradient); higher = more hydrophobic / later elution
[2] = collision cross section (TIMS, N2 drift gas) of the primary ion; higher = larger gas-phase ion size
[3] = ionization mode: ESI+, ion species: [M+H]+
[4] = ionization mode: ESI-, ion species: [M-H]-
[5] = ionization mode: ESI+, ion species: [M]+

reversed-phase LC retention time [1, 3] [min]	reversed-phase LC retention time [1, 4] [min]	collision cross section [2, 3] [Å²]	collision cross section [2, 4] [Å²]	Structure (SMILES)	reversed-phase LC retention time [1, 5] [min]	collision cross section [2, 5] [Å²]
15.1	15.6	187.34	188.11	CC(=O)[C@@]1(O)CC[C@H]2[C@@H]3C[C@H](C)C4=CC(=O)CC[C@]4(C)[C@H]3CC[C@@]21C [Medroxyprogesterone]	–	–
8.94	–	152.39	–	COCCOCCOCCOCCOC [Tetraglyme]	–	–
3.16	3.13	148.26	146.78	Nc1nc2c(ncn2COCCO)c(=O)[nH]1 [Acyclovir]	–	–
–	7.53	–	159.41	CCc1cccc(C)c1N(C(=O)C(=O)O)C(C)C(=O)O (centres undefined)	–	–
7.17	8.23	166.31	167.47	O=S(=O)(O)c1ccc2[nH]c(-c3ccccc3)nc2c1 [Phenylbenzimidazole sulfonic acid]	–	–
15.1	–	148.22	–	COc1ccc(C(=O)c2ccccc2)c(O)c1 [Benzophenone-3]	–	–
–	16.1	–	165.42	CCCCCCCCCCCCS(=O)(=O)O [1-Dodecanesulfonic acid]	–	–
15.2	15.6	207.98	210.25	CCC(=O)O[C@]1(C(=O)CCl)[C@@H](C)C[C@H]2[C@@H]3CCC4=CC(=O)C=C[C@]4(C)[C@@]3(F)[C@@H](O)C[C@@]21C [Clobetasol propionate]	–	–
8.29	–	156.14	–	CCN(CC)CC(=O)Nc1c(C)cccc1C [Lidocaine]	–	–
–	17.3	–	185.13	CCCCCCCCCCCCc1ccccc1S(=O)(=O)O [Dodecylbenzenesulfonic acid]	–	–
14.5	14.8	183.52	185.03	CC(=O)C1(O)CCC2C3CCC4=CC(=O)CCC4(C)C3CCC21C (stereo not drawn) [17alpha-Hydroxyprogesterone]	–	–
2.26	–	135.54	–	CN1CCCC1c1cccnc1 (centres undefined) [Nicotine]	–	–
–	11.4	–	133.26	O=C(O)C(F)(F)C(F)(F)C(F)(F)OC(F)(F)F [Perfluoro-4-methoxybutanoic acid]	–	–
6.97	–	120.11	–	CCN1CCCC1=O [1-Ethyl-2-pyrrolidinone]	–	–
15.1	15.5	189.33	191.15	Cc1ccc(-c2cc(C(F)(F)F)nn2-c2ccc(S(N)(=O)=O)cc2)cc1 [Celecoxib]	–	–
18	–	185.48	–	CCCCOC(=O)CCCCCCCCC(=O)OCCCC [Dibutyl sebacate]	–	–
–	14.7	–	159.45	O=S(=O)(O)C(F)(F)C(F)(F)C(F)(F)C(F)(F)C(F)(F)C(F)(F)C(F)(F)F [Perfluoroheptanesulfonic acid]	–	–
10.4	–	171.03	–	CC(C1=C(CCN(C)C)Cc2ccccc21)c1ccccn1 (centres undefined) [Dimethindene]	–	–
12.1	–	198.45	–	COc1ccc([C@@H]2Sc3ccccc3N(CCN(C)C)C(=O)[C@@H]2OC(C)=O)cc1 [Diltiazem]	–	–
13.3	9.52	196.78	202.36	CCOc1nc2cccc(C(=O)O)c2n1Cc1ccc(-c2ccccc2-c2nnn[nH]2)cc1 [Candesartan]	–	–

reversed-phase LC retention time [1, 3] [min]	reversed-phase LC retention time [1, 4] [min]	collision cross section [2, 3] [Å²]	collision cross section [2, 4] [Å²]	Structure (SMILES)	reversed-phase LC retention time [1, 5] [min]	collision cross section [2, 5] [Å²]
9.53	6.92	169.12	165.1	CC(=O)Nc1ccc(S(=O)(=O)Nc2cc(C)on2)cc1 [Acetylsulfamethoxazole]	–	–
14.4	14.7	184.47	183.62	CCOC(=O)C1=C(C)NC(C)=C(C(=O)OC)C1c1cccc([N+](=O)[O-])c1 (centres undefined) [Nitrendipin]	–	–
12.1	8.09	175.88	179.05	COc1cc(OC)nc(NC(=O)NS(=O)(=O)N(C)S(C)(=O)=O)n1 [Amidosulfuron]	–	–
7.8	–	173.75	–	COc1cc(Cc2cnc(N)nc2N)cc(OC)c1OC [Trimethoprim]	–	–
–	9.28	–	120.9	Clc1ccc2n[nH]nc2c1 [5-Chlorobenzotriazole]	–	–
13.8	–	151.76	–	COc1ccc2cc(C(C)C(=O)O)ccc2c1 (centres undefined) [Naproxen]	–	–
11.3	10.5	155.28	161.26	COCC(C)N(C(=O)C(=O)O)c1c(C)csc1C (centres undefined) [Dimethenamid OA]	–	–
–	5.43	–	159.84	COCC(=O)N(c1c(C)cccc1C(=O)O)C(C)C(=O)O (centres undefined)	–	–
–	7.27	–	178.16	CCCCc1ncc(C(=O)O)n1Cc1ccc(C(=O)O)cc1 [Eprosartan acid]	–	–
–	15.8	–	203	C[C@H](CCC(=O)O)[C@H]1CC[C@H]2[C@@H]3CC[C@@H]4C[C@H](O)CC[C@]4(C)[C@H]3C[C@H](O)[C@]12C [Deoxycholic acid]	–	–
11.9	10.2	160.2	159.59	O=c1c(-c2ccc(O)cc2)coc2cc(O)cc(O)c12 [Genistein]	–	–
11.3	–	182.06	–	CN(C)CCCC1(c2ccc(F)cc2)OCc2cc(C#N)ccc21 (centres undefined) [Citalopram]	–	–
–	–	–	–	CCCCCCCCCC[N+](C)(C)CCCCCCCCCC [Didecyldimethylammonium]	17.3	211.39
–	12.9	–	140.81	CCCOC(=O)c1ccc(O)cc1 [Propylparaben]	–	–
11.1	9.78	155.18	157.58	O=c1c(-c2ccc(O)cc2)coc2cc(O)ccc12 [Daidzein]	–	–
–	12.9	–	166.25	COc1ccc(-c2coc3cc(O)cc(O)c3c2=O)cc1 [Biochanin A]	–	–
15.3	14.3	216.66	215.02	CCC1=C(C)CN(C(=O)NCCc2ccc(S(=O)(=O)NC(=O)NC3CCC(C)CC3)cc2)C1=O (centres undefined) [Glimepiride]	–	–
15.8	14.3	204.58	208.67	C[C@@H](CCC(=O)O)C1CCC2C3C(=O)CC4C[C@H](O)CC[C@]4(C)C3CC[C@@]21C (some centres undefined) [7-Oxolithocholic acid]	–	–
11.1	–	156.95	–	Cc1cccc(C)c1N(Cn1cccn1)C(=O)CO [Metazachlor-2-hydroxy]	–	–
5.99	–	123.13	–	Oc1cccc2[nH]nnc12 [4-Hydroxybenzotriazole]	–	–

Structure (SMILES)	reversed-phase LC retention time [1, 3] [min]	reversed-phase LC retention time [1, 4] [min]	collision cross section [2, 3] [Å²]	collision cross section [2, 4] [Å²]	reversed-phase LC retention time [1, 5] [min]	collision cross section [2, 5] [Å²]
COP(=O)(OC)OC=C(Cl)Cl [Dichlorvos]	9.07	–	139.26	–	–	–
CC(Oc1ccc(Oc2nc3ccc(Cl)cc3o2)cc1)C(=O)O (centres undefined) [Fenoxaprop-P]	15.3	13.9	181.01	189.16	–	–
c1ccc(/N=N/c2ccccc2)cc1 [Azobenzene]	13.1	–	138.4	–	–	–
CC(C)COP(=O)(OCC(C)C)OCC(C)C [Tri-isobutylphosphate]	16.3	–	165.01	–	–	–
C#CCN1C(=O)COc2cc(F)c(N3C(=O)C4=C(CCCC4)C3=O)cc21 [Flumioxazin]	13.5	–	188.98	–	–	–
CNC(=O)CSP(=O)(OC)OC [Omethoate]	6.04	–	135.65	–	–	–
CCNc1nc(NC(C)(C)C)nc(SC)n1 [Terbutryn]	14	–	160.25	–	–	–
COc1cnc(OC)n2nc(NS(=O)(=O)c3c(OCC(F)F)cccc3C(F)(F)F)nc12 [Penoxsulam]	12.3	–	196.63	–	–	–
CC[C@H](C)[C@H]1O[C@]2(C=C[C@@H]1C)C[C@@H]1C[C@@H](C/C=C(\C)[C@@H](O[C@H]3C[C@H](OC)[C@@H](O[C@H]4C[C@H](OC)[C@@H](NC)[C@H](C)O4)[C@H](C)O3)[C@@H](C)/C=C/C=C3\CO[C@@H]4[C@H](O)C(C)=C[C@@H](C(=O)O1)[C@]34O)O2 [Emamectin B1a]	17	18.9	283.49	296.31	–	–
N#C/N=C1/SCCN1Cc1ccc(Cl)nc1 [Thiacloprid]	9.94	10	158.43	153.51	–	–
COCC(C)N(C(=O)CCl)c1c(C)csc1C (centres undefined) [Dimethenamid]	14	–	155.6	–	–	–
C=CCC1(C(C)CCC)C(=O)NC(=O)NC1=O (centres undefined) [Secobarbital]	–	12.7	–	153.23	–	–
NS(=O)(=O)C(F)(F)C(F)(F)C(F)(F)C(F)(F)C(F)(F)C(F)(F)C(F)(F)C(F)(F)F [Perfluorooctanesulfonamide]	–	15.7	–	169.81	–	–
C#CC(C)(C)NC(=O)c1cc(Cl)cc(Cl)c1 [Propyzamide]	14.2	–	158.35	–	–	–
CC(C)Nc1ccc(Nc2ccccc2)cc1 [N-isopropyl-N-phenyl-p-phenylenediamine]	8.47	–	171.67	–	–	–
Nc1ccc(Sc2ccc(N)cc2)cc1 [4,4'-Thiodianiline]	9.19	–	164.43	–	–	–
CC(C)(c1ccc(O)c(-c2ccccc2)c1)c1ccc(O)c(-c2ccccc2)c1 [Bisphenol PH]	–	17.2	–	204.63	–	–
O=C1NCCN1Cc1ccc(Cl)nc1 [Imidacloprid-urea]	8.55	–	143.26	–	–	–
Cc1cnc2ccc3c(nc(N)n3C)c2n1 [2-Amino-3,8-dimethylimidazo-[4,5-f]quinoxaline (MeIQx)]	7.67	9.09	147.79	147.68	–	–
CCC(C)n1c(=O)[nH]c(C)c(Br)c1=O (centres undefined) [Bromacil]	11.4	–	144.76	–	–	–
COCC(=O)N(c1c(C)cccc1C)C(C)C(=O)OC (centres undefined) [Metalaxyl]	12.7	–	160.45	–	–	–
CC(C)(C)c1cc(-n2nc3ccccc3n2)c(O)c(C(C)(C)C)c1 [UV-320]	19.7	20.9	188.24	193.86	–	–
